Test results from ChEMBL document CHEMBL5143588, “Discovery, Synthesis, and Biological Evaluation of Anaenamides C and D from a New Marine Cyanobacterium, Hormoscilla sp” (J Nat Prod, 2022).
The source made the active and inactive calls. The calls are words filed in the database; no cut-off is given here.

Tests used:
HCT-116 = assay: Cytotoxicity against human HCT116 cells assessed as inhibition of cell viability incubated for 48 hrs by MTT assay; assay type: functional, cell-based; conditions: HCT-116, 48 h
[1] = target: T1, Nuclear factor erythroid 2-related factor 2 (Homo sapiens) (UniProt Q16236); assay: Activation of Nrf2 in human HEK293-ARE-Luc cells assessed as fold activation of luciferase activity at 32 uM incubated for 24 hrs by ARE-luciferase reporter gene assay; assay type: cell-based; conditions: filed as activator
T1 sequence (whole entry): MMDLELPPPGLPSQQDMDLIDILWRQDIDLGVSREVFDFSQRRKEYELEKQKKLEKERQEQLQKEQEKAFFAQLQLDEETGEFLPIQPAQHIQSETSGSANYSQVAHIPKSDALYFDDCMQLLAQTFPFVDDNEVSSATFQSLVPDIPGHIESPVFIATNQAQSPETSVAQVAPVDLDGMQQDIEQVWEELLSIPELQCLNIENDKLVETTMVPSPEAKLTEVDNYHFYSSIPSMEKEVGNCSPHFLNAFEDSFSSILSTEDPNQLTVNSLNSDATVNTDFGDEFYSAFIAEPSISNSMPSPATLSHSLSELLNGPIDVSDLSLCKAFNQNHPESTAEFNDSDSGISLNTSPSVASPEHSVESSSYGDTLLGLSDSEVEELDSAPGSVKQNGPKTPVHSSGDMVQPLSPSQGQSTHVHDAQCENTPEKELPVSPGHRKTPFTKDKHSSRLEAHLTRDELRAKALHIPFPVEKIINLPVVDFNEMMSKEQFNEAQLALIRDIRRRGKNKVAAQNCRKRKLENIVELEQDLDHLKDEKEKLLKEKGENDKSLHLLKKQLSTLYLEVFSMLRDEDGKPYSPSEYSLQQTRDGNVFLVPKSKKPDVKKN

[2] = target: T1, Nuclear factor erythroid 2-related factor 2 (Homo sapiens); assay: Activation of Nrf2 in human HEK293-ARE-Luc cells assessed as fold activation of luciferase activity at 100 uM incubated for 24 hrs by ARE-luciferase reporter gene assay; assay type: cell-based; conditions: filed as activator
[3] = target: T1, Nuclear factor erythroid 2-related factor 2 (Homo sapiens); assay: Activation of Nrf2 in human HEK293-ARE-Luc cells at 10 to 100 uM incubated for 24 hrs by ARE-luciferase reporter gene assay; assay type: cell-based; conditions: filed as activator, dose 10-100 µM
HEK293 [4] = assay: Cytotoxicity against human HEK293-ARE-Luc cells assessed as reduction in cell viability at 10 to 100 uM incubated for 24 hrs by MTT assay; assay type: toxicity, cell-based; conditions: hek293, 24 h, dose 10-100 µM
HEK293 [5] = assay: Cytotoxicity against human HEK293-ARE-Luc cells assessed as change in cell viability incubated for 24 hrs by MTT assay; assay type: toxicity, cell-based; conditions: hek293, 24 h

| SMILES | fold change (FC) [1] | IC50 (HCT-116) [µM] | other results |
| --- | --- | --- | --- |
| CCCCCc1cccc(OC)c1C(=O)O[C@@H](C(=O)O[C@@H](C)C(=O)NC/C=C(\Cl)C(=O)NC(c1ccccc1)(c1ccccc1)c1ccccc1)[C@@H](C)CC |  |  | fold change (FC) [2]: 11 |
| CCCCCc1cccc(OC)c1C(=O)O[C@@H](C(=O)O[C@@H](C)C(=O)NC/C=C(/Cl)C(=O)NC(c1ccccc1)(c1ccccc1)c1ccccc1)[C@@H](C)CC |  |  | fold change (FC) [2]: 6 |
| CCCCCc1cccc(OC)c1C(=O)O[C@@H](C(=O)O[C@@H](C)C(=O)NC/C=C(/Cl)C(=O)OC)[C@@H](C)CC |  | 5 | Activity [3]: Active; Activity (HEK293 [4]): Toxic |
| CC(C)(C)c1cc(O)ccc1O [E319] | 29 |  | Activity (HEK293 [5]): Non-Toxic |
| CCCCCc1cccc(OC)c1C(=O)O[C@@H](C(=O)O[C@@H](C)C(=O)NC/C=C(\Cl)C(=O)OC)[C@@H](C)CC |  | 9 | Activity [3]: Active; Activity (HEK293 [4]): Toxic |

Continued, in another order:

| fold change (FC) [1] | SMILES | IC50 (HCT-116) [µM] | other results |
| --- | --- | --- | --- |
| 15 | CCCCCc1cccc(OC)c1C(=O)O[C@@H](C(=O)O[C@@H](C)C(=O)NC/C=C(\Cl)C(N)=O)[C@@H](C)CC | 42 |  |
| 17 | CCCCCc1cccc(OC)c1C(=O)O[C@@H](C(=O)O[C@@H](C)C(=O)NC/C=C(/Cl)C(N)=O)[C@@H](C)CC | 32 |  |
